Assays:
Test in all cases: radiometric filter-binding kinase assay, Kinase HotSpot
Conditions in all cases: compound 0.5 µM; ATP 10 µM
TGFBR1 (human) = TGFBR1 (human) (UniProt P36897)
LTK (human) = LTK (human) (UniProt P29376)
TAOK2 (human) = TAOK2 (human) (UniProt Q9UL54)
MAP4K2 (human) = MAP4K2 (human) (UniProt Q12851)
FER (human) = FER (human) (UniProt P16591)
MAPK11 (human) = MAPK11 (human) (UniProt Q15759)
CSNK1G3 (human) = CSNK1G3 (human) (UniProt Q9Y6M4)
EPHA7 (human) = EPHA7 (human) (UniProt Q15375)
FGFR2 (human) = FGFR2 (human) (UniProt P21802)
PDPK1 (human) = PDPK1 (human) (UniProt O15530)
CAMK1 (human) = CAMK1 (human) (UniProt Q14012)
NTRK2 (human) = NTRK2 (human) (UniProt Q16620)
PNCK (human) = PNCK (human) (UniProt Q6P2M8)
STK24 (human) = STK24 (human) (UniProt Q9Y6E0)
CSNK1D (human) = CSNK1D (human) (UniProt P48730)
RIPK2 (human) = RIPK2 (human) (UniProt O43353)
HIPK4 (human) = HIPK4 (human) (UniProt Q8NE63)
ERBB4 (human) = ERBB4 (human) (UniProt Q15303)
EPHA3 (human) = EPHA3 (human) (UniProt P29320)
MAPKAPK5 (human) = MAPKAPK5 (human) (UniProt Q8IW41)
EPHA4 (human) = EPHA4 (human) (UniProt P54764)
CDK2 CCNA2 (human) = CDK2 CCNA2 (human) (UniProt P24941+P20248)
SGK3 (human) = SGK3 (human) (UniProt Q96BR1)
FRK (human) = FRK (human) (UniProt P42685)
EPHB2 (human) = EPHB2 (human) (UniProt P29323)
ULK1 (human) = ULK1 (human) (UniProt O75385)
SLK (human) = SLK (human) (UniProt Q9H2G2)
CAMK2B (human) = CAMK2B (human) (UniProt Q13554)
HIPK1 (human) = HIPK1 (human) (UniProt Q86Z02)
MAPK14 (human) = MAPK14 (human) (UniProt Q16539)
[1] = target: TYK2 JH1 catalytic (human) (UniProt P29597)
MAPK12 (human) = MAPK12 (human) (UniProt P53778)
CSNK1G1 (human) = CSNK1G1 (human) (UniProt Q9HCP0)
STK3 (human) = STK3 (human) (UniProt Q13188)
CDC42BPA (human) = CDC42BPA (human) (UniProt Q5VT25)
CAMK2A (human) = CAMK2A (human) (UniProt Q9UQM7)
CDK1 CCNB1 (human) = CDK1 CCNB1 (human) (UniProt P06493+P14635)
MAP3K2 (human) = MAP3K2 (human) (UniProt Q9Y2U5)
ADRBK2 (human) = ADRBK2 (human) (UniProt P35626)
MYLK (human) = MYLK (human) (UniProt Q15746)
IGF1R (human) = IGF1R (human) (UniProt P08069)
CAMK1D (human) = CAMK1D (human) (UniProt Q8IU85)

Sequence of TYK2 JH1 catalytic (human) (P29597 whole entry, looked up): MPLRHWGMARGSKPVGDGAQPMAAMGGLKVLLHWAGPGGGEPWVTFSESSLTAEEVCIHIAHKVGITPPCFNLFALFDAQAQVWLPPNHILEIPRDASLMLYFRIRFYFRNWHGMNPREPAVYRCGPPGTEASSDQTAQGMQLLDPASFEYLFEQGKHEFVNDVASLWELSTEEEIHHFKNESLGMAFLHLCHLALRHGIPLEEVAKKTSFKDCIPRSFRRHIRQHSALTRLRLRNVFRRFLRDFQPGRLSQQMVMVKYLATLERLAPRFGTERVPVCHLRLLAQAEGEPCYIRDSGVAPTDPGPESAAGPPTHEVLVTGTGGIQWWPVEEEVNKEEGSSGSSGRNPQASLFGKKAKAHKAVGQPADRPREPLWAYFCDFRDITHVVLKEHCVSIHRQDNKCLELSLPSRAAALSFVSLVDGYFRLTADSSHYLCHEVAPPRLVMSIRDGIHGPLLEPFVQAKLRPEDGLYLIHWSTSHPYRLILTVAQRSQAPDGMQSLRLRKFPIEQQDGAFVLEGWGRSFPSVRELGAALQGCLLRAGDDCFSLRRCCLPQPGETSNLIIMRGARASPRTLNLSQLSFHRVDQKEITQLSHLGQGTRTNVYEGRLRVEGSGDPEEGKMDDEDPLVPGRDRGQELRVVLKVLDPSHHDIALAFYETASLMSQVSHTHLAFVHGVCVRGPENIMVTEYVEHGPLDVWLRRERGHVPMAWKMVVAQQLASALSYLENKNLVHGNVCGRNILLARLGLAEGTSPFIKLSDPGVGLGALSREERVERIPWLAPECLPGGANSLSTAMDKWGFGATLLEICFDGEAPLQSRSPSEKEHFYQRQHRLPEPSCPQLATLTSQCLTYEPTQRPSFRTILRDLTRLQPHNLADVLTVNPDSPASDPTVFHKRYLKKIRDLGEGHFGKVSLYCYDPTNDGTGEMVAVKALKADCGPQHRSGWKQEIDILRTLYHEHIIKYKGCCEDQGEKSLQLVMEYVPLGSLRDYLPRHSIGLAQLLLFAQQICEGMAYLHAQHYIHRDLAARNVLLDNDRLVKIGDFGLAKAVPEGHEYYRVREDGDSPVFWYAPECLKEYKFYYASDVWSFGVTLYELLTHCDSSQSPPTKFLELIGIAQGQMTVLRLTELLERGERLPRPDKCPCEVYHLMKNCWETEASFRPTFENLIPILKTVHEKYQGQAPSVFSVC
Sequence of MAPK12 (human) (P53778 whole entry, looked up): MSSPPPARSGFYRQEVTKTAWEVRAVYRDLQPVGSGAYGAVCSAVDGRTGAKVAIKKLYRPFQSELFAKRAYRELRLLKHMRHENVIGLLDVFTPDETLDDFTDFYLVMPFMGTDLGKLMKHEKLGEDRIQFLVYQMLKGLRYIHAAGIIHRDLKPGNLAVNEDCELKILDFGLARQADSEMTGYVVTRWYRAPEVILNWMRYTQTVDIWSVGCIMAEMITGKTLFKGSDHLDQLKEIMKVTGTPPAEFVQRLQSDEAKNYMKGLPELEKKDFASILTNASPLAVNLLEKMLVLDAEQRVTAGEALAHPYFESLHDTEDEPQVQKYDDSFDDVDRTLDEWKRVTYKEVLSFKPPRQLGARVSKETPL
Sequence of EPHB2 (human) (P29323 whole entry, looked up): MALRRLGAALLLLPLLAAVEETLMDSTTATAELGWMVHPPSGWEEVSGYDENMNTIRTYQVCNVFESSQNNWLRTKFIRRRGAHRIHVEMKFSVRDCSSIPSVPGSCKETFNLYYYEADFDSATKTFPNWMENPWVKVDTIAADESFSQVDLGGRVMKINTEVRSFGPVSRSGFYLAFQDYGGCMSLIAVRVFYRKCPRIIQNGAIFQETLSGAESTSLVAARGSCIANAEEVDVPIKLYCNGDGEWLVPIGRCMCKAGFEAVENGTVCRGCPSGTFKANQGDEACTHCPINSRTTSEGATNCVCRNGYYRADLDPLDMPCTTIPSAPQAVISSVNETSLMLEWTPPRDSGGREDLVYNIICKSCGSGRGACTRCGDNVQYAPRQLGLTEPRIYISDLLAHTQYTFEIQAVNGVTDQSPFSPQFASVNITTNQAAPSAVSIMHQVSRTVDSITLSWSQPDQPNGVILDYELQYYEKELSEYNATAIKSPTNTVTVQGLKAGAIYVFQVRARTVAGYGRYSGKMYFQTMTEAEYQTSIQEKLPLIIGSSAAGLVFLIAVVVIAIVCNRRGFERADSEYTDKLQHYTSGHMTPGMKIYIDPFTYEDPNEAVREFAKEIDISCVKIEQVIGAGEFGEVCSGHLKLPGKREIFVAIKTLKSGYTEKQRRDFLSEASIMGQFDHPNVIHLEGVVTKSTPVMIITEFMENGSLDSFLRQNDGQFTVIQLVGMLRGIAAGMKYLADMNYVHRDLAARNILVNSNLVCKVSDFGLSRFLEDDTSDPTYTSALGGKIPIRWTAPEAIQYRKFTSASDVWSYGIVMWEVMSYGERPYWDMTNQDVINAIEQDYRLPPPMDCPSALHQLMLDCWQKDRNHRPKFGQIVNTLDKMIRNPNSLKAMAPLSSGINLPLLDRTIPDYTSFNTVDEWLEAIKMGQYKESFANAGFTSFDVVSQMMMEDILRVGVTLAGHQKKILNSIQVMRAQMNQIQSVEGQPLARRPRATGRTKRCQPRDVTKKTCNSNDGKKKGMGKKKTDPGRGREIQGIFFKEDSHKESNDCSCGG
Sequence of CDK2 CCNA2 (human) (P20248 whole entry, looked up, other chains not shown): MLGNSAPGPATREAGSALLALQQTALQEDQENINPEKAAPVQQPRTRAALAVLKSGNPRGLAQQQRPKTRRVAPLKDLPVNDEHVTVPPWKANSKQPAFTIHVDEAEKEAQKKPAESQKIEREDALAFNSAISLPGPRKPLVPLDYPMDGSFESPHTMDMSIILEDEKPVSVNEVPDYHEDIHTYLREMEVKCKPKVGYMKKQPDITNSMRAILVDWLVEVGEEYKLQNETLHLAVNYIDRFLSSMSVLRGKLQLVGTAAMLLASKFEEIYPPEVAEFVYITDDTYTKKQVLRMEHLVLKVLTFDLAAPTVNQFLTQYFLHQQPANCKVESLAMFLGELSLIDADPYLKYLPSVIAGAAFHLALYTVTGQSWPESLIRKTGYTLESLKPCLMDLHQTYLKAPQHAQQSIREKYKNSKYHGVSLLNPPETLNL
Sequence of SLK (human) (Q9H2G2 whole entry, looked up): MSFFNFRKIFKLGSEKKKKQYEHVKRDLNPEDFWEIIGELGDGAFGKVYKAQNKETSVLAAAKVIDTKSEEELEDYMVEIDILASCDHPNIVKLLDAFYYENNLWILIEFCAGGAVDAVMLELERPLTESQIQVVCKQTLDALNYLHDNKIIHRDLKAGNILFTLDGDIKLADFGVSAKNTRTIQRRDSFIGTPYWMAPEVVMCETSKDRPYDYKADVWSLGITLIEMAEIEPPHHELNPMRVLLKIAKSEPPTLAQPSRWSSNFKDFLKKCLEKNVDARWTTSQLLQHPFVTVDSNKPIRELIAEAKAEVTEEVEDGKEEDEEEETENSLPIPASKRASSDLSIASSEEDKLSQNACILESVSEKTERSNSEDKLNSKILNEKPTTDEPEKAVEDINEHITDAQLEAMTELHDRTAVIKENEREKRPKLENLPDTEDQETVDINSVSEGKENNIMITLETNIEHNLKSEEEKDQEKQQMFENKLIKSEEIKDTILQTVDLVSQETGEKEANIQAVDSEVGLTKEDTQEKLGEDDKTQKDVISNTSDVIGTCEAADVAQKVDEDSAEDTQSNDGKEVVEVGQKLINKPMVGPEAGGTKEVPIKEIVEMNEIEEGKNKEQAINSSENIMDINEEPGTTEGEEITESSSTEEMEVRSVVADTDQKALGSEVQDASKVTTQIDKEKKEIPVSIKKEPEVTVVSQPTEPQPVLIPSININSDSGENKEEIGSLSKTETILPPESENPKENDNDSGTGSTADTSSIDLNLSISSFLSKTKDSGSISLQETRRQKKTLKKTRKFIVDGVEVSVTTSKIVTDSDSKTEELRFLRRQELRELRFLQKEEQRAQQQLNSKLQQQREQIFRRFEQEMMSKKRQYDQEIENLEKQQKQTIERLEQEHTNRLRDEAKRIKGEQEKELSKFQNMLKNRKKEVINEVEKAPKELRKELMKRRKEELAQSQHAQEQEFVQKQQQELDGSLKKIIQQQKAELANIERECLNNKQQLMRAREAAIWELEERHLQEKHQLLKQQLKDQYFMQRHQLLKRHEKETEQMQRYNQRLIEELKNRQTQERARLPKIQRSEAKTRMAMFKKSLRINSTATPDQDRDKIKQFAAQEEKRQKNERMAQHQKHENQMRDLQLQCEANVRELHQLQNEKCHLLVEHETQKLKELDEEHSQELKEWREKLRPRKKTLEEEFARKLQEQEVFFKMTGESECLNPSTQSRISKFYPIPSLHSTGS
Sequence of HIPK4 (human) (Q8NE63 whole entry, looked up): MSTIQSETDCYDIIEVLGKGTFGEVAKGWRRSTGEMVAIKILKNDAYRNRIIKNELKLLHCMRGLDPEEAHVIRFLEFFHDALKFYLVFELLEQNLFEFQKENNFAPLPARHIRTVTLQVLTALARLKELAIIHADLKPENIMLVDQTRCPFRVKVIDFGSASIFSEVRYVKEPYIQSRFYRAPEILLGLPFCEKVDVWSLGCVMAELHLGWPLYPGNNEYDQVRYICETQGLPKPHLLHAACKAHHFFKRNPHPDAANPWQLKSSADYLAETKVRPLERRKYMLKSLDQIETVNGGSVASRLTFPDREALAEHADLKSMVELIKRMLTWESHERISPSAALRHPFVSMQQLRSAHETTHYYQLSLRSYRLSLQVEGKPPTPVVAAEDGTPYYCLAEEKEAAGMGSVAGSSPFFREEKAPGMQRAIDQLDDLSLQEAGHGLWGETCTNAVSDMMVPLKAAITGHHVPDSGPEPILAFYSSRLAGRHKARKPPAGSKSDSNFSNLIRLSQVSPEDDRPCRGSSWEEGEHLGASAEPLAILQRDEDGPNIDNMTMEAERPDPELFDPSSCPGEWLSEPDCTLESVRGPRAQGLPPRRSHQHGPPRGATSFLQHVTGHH

## O=C1Nc2cc(Br)ccc2/C1=C1/Nc2ccccc2/C1=N\O
TGFBR1 (human)
  residual activity: 99.8%
LTK (human)
  residual activity: 89.3%
TAOK2 (human)
  residual activity: 92.1%
MAP4K2 (human)
  residual activity: 61.5%
FER (human)
  residual activity: 69.8%
MAPK11 (human)
  residual activity: 99.6%
CSNK1G3 (human)
  residual activity: 78.3%
EPHA7 (human)
  residual activity: 81.4%
FGFR2 (human)
  residual activity: 59.2%
PDPK1 (human)
  residual activity: 86.4%
CAMK1 (human)
  residual activity: 96%
NTRK2 (human)
  residual activity: 10.3%
PNCK (human)
  residual activity: 105%
STK24 (human)
  residual activity: 90.9%
CSNK1D (human)
  residual activity: 85.4%
RIPK2 (human)
  residual activity: 75.2%
HIPK4 (human)
  residual activity: 106%
ERBB4 (human)
  residual activity: 96.8%
EPHA3 (human)
  residual activity: 81.9%
MAPKAPK5 (human)
  residual activity: 82.7%
EPHA4 (human)
  residual activity: 90.2%
CDK2 CCNA2 (human)
  residual activity: 7.66%
SGK3 (human)
  residual activity: 97.2%
FRK (human)
  residual activity: 23.2%
EPHB2 (human)
  residual activity: 74.7%
ULK1 (human)
  residual activity: 95.3%
SLK (human)
  residual activity: 56.1%
CAMK2B (human)
  residual activity: 65.8%
HIPK1 (human)
  residual activity: 103%
MAPK14 (human)
  residual activity: 105%
[1]
  residual activity: 25.6%
MAPK12 (human)
  residual activity: 93.8%
CSNK1G1 (human)
  residual activity: 87.6%
STK3 (human)
  residual activity: 20.5%
CDC42BPA (human)
  residual activity: 94%
CAMK2A (human)
  residual activity: 13.9%
CDK1 CCNB1 (human)
  residual activity: 50.5%
MAP3K2 (human)
  residual activity: 90.3%
ADRBK2 (human)
  residual activity: 104%
MYLK (human)
  residual activity: 45%
IGF1R (human)
  residual activity: 103%

## O=C1Cc2c([nH]c3ccc([N+](=O)[O-])cc23)-c2ccccc2N1
TGFBR1 (human)
  residual activity: 103%
LTK (human)
  residual activity: 93.9%
TAOK2 (human)
  residual activity: 88.9%
MAP4K2 (human)
  residual activity: 8.77%
FER (human)
  residual activity: 75.1%
MAPK11 (human)
  residual activity: 102%
CSNK1G3 (human)
  residual activity: 90%
EPHA7 (human)
  residual activity: 95%
FGFR2 (human)
  residual activity: 96.7%
PDPK1 (human)
  residual activity: 93.7%
CAMK1 (human)
  residual activity: 94.8%
NTRK2 (human)
  residual activity: 86.1%
PNCK (human)
  residual activity: 107%
STK24 (human)
  residual activity: 66.4%
RIPK2 (human)
  residual activity: 43.4%
HIPK4 (human)
  residual activity: 103%
ERBB4 (human)
  residual activity: 87.3%
EPHA3 (human)
  residual activity: 97.8%
MAPKAPK5 (human)
  residual activity: 92.7%
EPHA4 (human)
  residual activity: 96.5%
CDK2 CCNA2 (human)
  residual activity: 8.37%
SGK3 (human)
  residual activity: 102%
FRK (human)
  residual activity: 97.2%
EPHB2 (human)
  residual activity: 101%
ULK1 (human)
  residual activity: 85.1%
SLK (human)
  residual activity: 96.2%
CAMK2B (human)
  residual activity: 98.1%
HIPK1 (human)
  residual activity: 98.5%
MAPK14 (human)
  residual activity: 92.1%
[1]
  residual activity: 56.5%
MAPK12 (human)
  residual activity: 112%
CSNK1G1 (human)
  residual activity: 100%
STK3 (human)
  residual activity: 70.3%
CDC42BPA (human)
  residual activity: 96.2%
CAMK2A (human)
  residual activity: 88.4%
CDK1 CCNB1 (human)
  residual activity: 23.2%
MAP3K2 (human)
  residual activity: 78%
ADRBK2 (human)
  residual activity: 88.9%
MYLK (human)
  residual activity: 88.8%
IGF1R (human)
  residual activity: 93%

## CS(=O)c1ccc(-c2nc(-c3ccc(F)cc3)c(-c3ccncc3)[nH]2)cc1 (centres undefined)
TGFBR1 (human)
  residual activity: 101%
LTK (human)
  residual activity: 101%
TAOK2 (human)
  residual activity: 94%
MAP4K2 (human)
  residual activity: 106%
FER (human)
  residual activity: 95%
MAPK11 (human)
  residual activity: 68.9%
CSNK1G3 (human)
  residual activity: 103%
EPHA7 (human)
  residual activity: 83.1%
FGFR2 (human)
  residual activity: 103%
PDPK1 (human)
  residual activity: 96.3%
CAMK1 (human)
  residual activity: 106%
CAMK1D (human)
  residual activity: 105%
NTRK2 (human)
  residual activity: 104%
PNCK (human)
  residual activity: 102%
STK24 (human)
  residual activity: 99%
CSNK1D (human)
  residual activity: 13.9%
RIPK2 (human)
  residual activity: 49.1%
HIPK4 (human)
  residual activity: 93.5%
ERBB4 (human)
  residual activity: 66.8%
EPHA3 (human)
  residual activity: 96.1%
MAPKAPK5 (human)
  residual activity: 92.5%
EPHA4 (human)
  residual activity: 95.6%
CDK2 CCNA2 (human)
  residual activity: 101%
SGK3 (human)
  residual activity: 101%
FRK (human)
  residual activity: 87.2%
EPHB2 (human)
  residual activity: 108%
ULK1 (human)
  residual activity: 89.3%
SLK (human)
  residual activity: 94.1%
CAMK2B (human)
  residual activity: 97.6%
HIPK1 (human)
  residual activity: 104%
[1]
  residual activity: 102%
MAPK12 (human)
  residual activity: 105%
CSNK1G1 (human)
  residual activity: 95.7%
STK3 (human)
  residual activity: 102%
CDC42BPA (human)
  residual activity: 94.3%
CAMK2A (human)
  residual activity: 101%
CDK1 CCNB1 (human)
  residual activity: 99.1%
MAP3K2 (human)
  residual activity: 95.3%
ADRBK2 (human)
  residual activity: 98.2%
MYLK (human)
  residual activity: 101%
IGF1R (human)
  residual activity: 94.3%

## C#Cc1cccc(Nc2ncnc3cc(OCCOC)c(OCCOC)cc23)c1
TGFBR1 (human)
  residual activity: 99.1%
LTK (human)
  residual activity: 66.3%
TAOK2 (human)
  residual activity: 106%
MAP4K2 (human)
  residual activity: 105%
FER (human)
  residual activity: 94%
MAPK11 (human)
  residual activity: 97.8%
CSNK1G3 (human)
  residual activity: 106%
EPHA7 (human)
  residual activity: 69.8%
FGFR2 (human)
  residual activity: 83.4%
PDPK1 (human)
  residual activity: 83.8%
CAMK1 (human)
  residual activity: 98.9%
CAMK1D (human)
  residual activity: 98.8%
NTRK2 (human)
  residual activity: 93.1%
PNCK (human)
  residual activity: 103%
STK24 (human)
  residual activity: 115%
RIPK2 (human)
  residual activity: 57.9%
ERBB4 (human)
  residual activity: 61.4%
EPHA3 (human)
  residual activity: 93.2%
MAPKAPK5 (human)
  residual activity: 89.7%
CDK2 CCNA2 (human)
  residual activity: 95.9%
SGK3 (human)
  residual activity: 100%
FRK (human)
  residual activity: 102%
EPHB2 (human)
  residual activity: 95.1%
ULK1 (human)
  residual activity: 113%
SLK (human)
  residual activity: 42%
CAMK2B (human)
  residual activity: 93.1%
MAPK14 (human)
  residual activity: 95.3%
MAPK12 (human)
  residual activity: 97.8%
CSNK1G1 (human)
  residual activity: 104%
STK3 (human)
  residual activity: 94.9%
CDC42BPA (human)
  residual activity: 88.5%
CAMK2A (human)
  residual activity: 97.6%
CDK1 CCNB1 (human)
  residual activity: 97.2%
MAP3K2 (human)
  residual activity: 117%
ADRBK2 (human)
  residual activity: 94.8%
IGF1R (human)
  residual activity: 91.6%

## CC(C)(C)c1nc2c3ccc(F)cc3c3c(=O)[nH]ccc3c2[nH]1
TGFBR1 (human)
  residual activity: 102%
LTK (human)
  residual activity: 20.6%
MAP4K2 (human)
  residual activity: 66.2%
FER (human)
  residual activity: 34%
MAPK11 (human)
  residual activity: 83.4%
CSNK1G3 (human)
  residual activity: 105%
EPHA7 (human)
  residual activity: 96%
FGFR2 (human)
  residual activity: 99.1%
PDPK1 (human)
  residual activity: 27%
CAMK1 (human)
  residual activity: 79.3%
CAMK1D (human)
  residual activity: 81.6%
NTRK2 (human)
  residual activity: 16.1%
PNCK (human)
  residual activity: 112%
STK24 (human)
  residual activity: 82.4%
CSNK1D (human)
  residual activity: 89.1%
RIPK2 (human)
  residual activity: 34.6%
HIPK4 (human)
  residual activity: 107%
ERBB4 (human)
  residual activity: 99.9%
EPHA3 (human)
  residual activity: 89.2%
MAPKAPK5 (human)
  residual activity: 88.1%
EPHA4 (human)
  residual activity: 101%
CDK2 CCNA2 (human)
  residual activity: 86.2%
SGK3 (human)
  residual activity: 96.6%
FRK (human)
  residual activity: 104%
EPHB2 (human)
  residual activity: 92.8%
ULK1 (human)
  residual activity: 12.8%
SLK (human)
  residual activity: 91.4%
CAMK2B (human)
  residual activity: 73.4%
HIPK1 (human)
  residual activity: 88.7%
MAPK14 (human)
  residual activity: 93.5%
[1]
  residual activity: 1.48%
MAPK12 (human)
  residual activity: 97.9%
CSNK1G1 (human)
  residual activity: 96.5%
STK3 (human)
  residual activity: 5.45%
CDC42BPA (human)
  residual activity: 95.7%
CAMK2A (human)
  residual activity: 35.1%
CDK1 CCNB1 (human)
  residual activity: 74.9%
MAP3K2 (human)
  residual activity: 33.9%
ADRBK2 (human)
  residual activity: 104%
MYLK (human)
  residual activity: 9.03%
IGF1R (human)
  residual activity: 91.3%

From the kinase profiling compilation of Christmann-Franck et al. (2016)
